Measured values reported in patent US20220119399A1, “COMPOUNDS AND COMPOSITIONS THAT CAUSE MYCN AND/OR CMYC DEGRADATION AND METHODS OF USE THEREOF” (THE TRUSTEES OF COLUMBIA UNIVERSITY IN THE CITY OF NEW YORK, priority 2018, published 2022).
“Also recorded” adds a separate entry of the source.

Key:
CK2a1 = target: T1, CK2a1 (Homo sapiens, UniProt P68400); assay: Cell-free biochemical CK2a1 kinase assay; settings: for IC50: read-out: IC50 of CK2a kinase activity
T1 construct: purchased Reaction Biology Corporation (Malvern, Pa.)
Experimental: Cell-free biochemical kinase assays were performed at Reaction Biology Corporation (Malvern, Pa.). In brief, kinase substrates were diluted into reaction buffer containing 20 mM Hepes (pH 7.5), 10 mM MgCl2, 1 mM EGTA, 0.02% Brij35, 0.02 mg/ml BSA, 0.1 mM Na3VO4, 2 mM DTT, 1% DMSO. Purified protein (CK2a1, CK2a2, or mTOR) was added to the substrate solution and gently mixed. Test compounds were diluted from 10 mM DMSO stock solutions into the reaction buffer using an Echo550 acoustic dispenser, followed by incubation at RT for 20 min. 33P-ATP (10 μCi/μL) was added to reaction mixture, following incubation for 2 h at RT. Reactions were then spotted onto P81 ion exchange paper and kinase activity was detected by filter binding method.

TEAD4 transcript = assay: RNASeq analysis of SK-N-Be2 cells, TEAD4 transcript; format: cell-based, human; settings: 3 μM or 10 μM, 3 h and 6 h
Experimental: (§1) To uncover changes in gene expression that underpin responses to pomiferin and isopomiferin, RNASeq analysis of SK-N-Be2 cells was performed following treatment with the two active prenylated isoflavonoids as well as a null analog that served as a negative control. SK-N-Be2 cells were treated with either 3 μM or 10 μM of isopomiferin or pomiferin and sampled after 3 h and 6 h. […] By comparing the active to the null analogs, downstream analyses can focus on changes in gene expression associated with the MYCN signature.

MYCN transcript = assay: RNASeq analysis of SK-N-Be2 cells, MYCN transcript; format: cell-based, human; settings: 3 μM or 10 μM, 3 h and 6 h
Experimental: as §1

SK-N-Be2 cells = assay: Cell viability assay (CellTiterGlo) in SK-N-Be2 cells; format: cell-based, human; settings: SK-N-Be2 cells
[1] = test system: NCI-H69, NCI-H526, NCI-H4414 and A549 cells; assay: Cell viability of four lung cancer cell lines; format: cell-based; settings: dose series
Experimental: Neuroblastoma (SK-N-Be2; IMR-32; NLF; SK-N-AS) and lung cancer cell lines (NCI-H69; NCI-H526; NCI-H441-4) were grown in Advanced RPMI medium (Life Technologies) supplemented with 10% FBS (Gibco), 1% GlutaMAX (Gibco), and 1% Penicillin/Streptomycin. A549 cells (NSCLC) was grown in F-12K medium (Gibco) with 10% FBS (Gibco), and 1% Penicillin/Streptomycin. Cell cultures were incubated at 37° C. with 5% CO2. For chemical screening, cells were trypsinized, counted and seeded into white opaque 384-well plates (Perkin Elmer) at a density of 1000 cells/well and incubated overnight. […] Cells were treated for 72 hrs, after which cell viability was determined using CellTiterGlo® luminescence assay, following the manufacturer's instructions (Promega). […] Cell viability data were analyzed and charted using PRISM v7.0 software (GraphPad). The dose-response curves were used to generate an inhibitory constant (IC50) value, which was averaged across the two cell lines from each subtype (ie: SK-N-AS and NLF as MESN NBL subtype; IMR-32 and SK-N-Be2 as MycN^AMP subtype). The IC50 values for each subtype were used to evaluate subtype selectivity of each compound, and identify compounds with enhanced potency in MycN^AMP NBL.

[2] = Metabolic stability in mouse liver microsomes; format: in vitro ADME
Experimental: Mouse liver microsomes (Xenotech) were diluted to 0.5 mg/mL in a solution containing 100 mM PBS buffer at 7.4 pH, an NADPH regenerating system (Promega), and test compounds at 20 μM. The mixture was incubated at 37° C. under gentle rotation for the indicated time points. The reaction was quenched by aliquoting 15 μL of solution into 60 μL ice-cold acetonitrile containing an internal standard. Test compounds were quantified by LC-MS using a system comprised of a Thermo Scientific Dionex Ultimate 3000 and a Bruker amaZon SL equipped with an electrospray ionization source controlled by a Bruker Hystar 3.2. Compounds were separated by injecting 20 μL of sample onto an Agilent Eclipse Plus C18 column (2.1×50 mm, […]) maintained at 20° C., with the flow rate set at 400 μL/min. Initial flow conditions were 60% solvent A (MilliQ H2O, 0.1% acetic acid), and 40% solvent B (HPLC-grade MeOH, 0.1% acetic acid). Solvent B was raised to 60% over 0.25 min and to 70% by 6.75 min. Solvent B was raised to 95% by 7 min and lowered back to 40% by 8 minutes; total run time was 9 min.

MYCNA tumor xenografts = assay: Tumor growth of MYCNA tumor xenografts; format: in vivo, mouse; settings: daily i.p. 20 mg/kg, 21 days, versus vehicle-only control
Experimental: 6-week old male mice were purchased from Charles River Laboratories, and housed in Columbia University's animal control barrier facilities, and mice were allowed one week to acclimate to their new environment. To establish tumor xenografts, 10×10^6 SK-N-Be2 cells were suspended in a 200 μL volume of 50% matrigel slurry. […] Mice were kept on standard chow diet (Purina), and their cage dressing changed twice weekly. Animals were investigated regularly for any sign of discomfort. […] To create the stock solution of isopomiferin, 5 mg of isopomiferin (MicroSource) was dissolved into 50 μL dimethyl sulfoxide (DMSO). To this 450 μL of cyclodextrin solution was added dropwise. Cyclodextrin is dissolved as a 50% w/v solution in 40% EtOH. It is important to add the cyclodextrin slowly and with continual mixing to solubilize the compound. This solution was added to one volume of PBS and filter-sterilized. This solution was then diluted to achieve appropriate concentrations for a 200 μL volume administration at 10 mg/kg to each mouse. The solution was administered to animals via intraperitoneal injection (i.p.). […]
The ability of the compounds to inhibit growth of MYCNA tumor xenografts was evaluated by treating tumor bearing mice with daily i.p. injections of 20 mg/kg isopomiferin or pomiferin. […] MYCN abundance was evaluated mid-experiment, following 14 days of treatment.

T1 sequence (P68400 whole entry): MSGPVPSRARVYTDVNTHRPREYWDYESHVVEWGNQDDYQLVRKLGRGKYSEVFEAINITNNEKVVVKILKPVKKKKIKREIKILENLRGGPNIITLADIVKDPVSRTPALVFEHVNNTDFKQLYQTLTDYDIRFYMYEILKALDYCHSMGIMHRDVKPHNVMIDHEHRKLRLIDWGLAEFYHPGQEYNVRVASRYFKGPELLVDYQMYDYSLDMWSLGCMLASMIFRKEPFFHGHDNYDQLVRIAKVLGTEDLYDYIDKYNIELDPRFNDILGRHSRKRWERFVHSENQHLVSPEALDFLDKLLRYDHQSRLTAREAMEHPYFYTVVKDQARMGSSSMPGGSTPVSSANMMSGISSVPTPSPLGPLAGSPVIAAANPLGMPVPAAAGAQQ

Row | Structure (SMILES) | IC50 (CK2a1) | TEAD4 transcript (RNASeq) (TEAD4 transcript) | MYCN transcript abundance (RNASeq) (MYCN transcript) | IC20 (SK-N-Be2 cells; determined empirically) | sensitivity of MycN-expressing versus non-expressing lung cancer lines (cell viability) [1] | compound remaining in mouse liver microsomes ([2]; mouse, microsomes, 2 h) | tumor growth (MYCNA tumor xenografts) | CK2a1 kinase activity (CK2a1) | inhibition of SK-N-Be2 cell viability (rank or activity in words) (SK-N-Be2 cells; 72 hrs) | compound remaining in mouse liver microsomes ([2]; 2 h incubation, 0.5 mg/mL microsomes)
1 | CC1(C)C=Cc2c(c3c(c4c(=O)c(-c5ccc(O)c(O)c5)coc24)OC(C)(C)CC3)O1 [isopomiferin] | ~7 µM | did not affect TEAD4 | suppressed MYCN transcript abundance | 10 µM | the MycN-expressing lines were more sensitive to isopomiferin treatment | ~50% | these differences were not significant |  |  | 
2 | CC(C)=CCc1c2c(c3occ(-c4ccc(O)c(O)c4)c(=O)c3c1O)C=CC(C)(C)O2 [pomiferin] | ~7 µM | suppressed both MYCN and TEAD4 transcript | suppressed MYCN transcript abundance |  | MycN-driven cell lines were more sensitive to the compound |  | reduced rates of tumor proliferation that were significant from the vehicle-only control arm by day 19 | inhibiting both isoforms equally in a concentration-dependent manner | the most potent compound of the group; also recorded: the most potent inhibitor of viability | ~80%
